Measured values reported in patent publication US20240165200A1, “CATH2 AND DERIVATIVES FOR INHIBITING STREPTOCOCCUS SUIS” (Universiteit Utrecht Holding B.V., priority 2021, published 2024).
≈ marks a conversion by molar mass, not a printed value. Where a SMILES comes first, the peptide text is derived from it. [ ]: non-standard residue; d: D form.

Assays:
[1] = tested on: murine BMDMs; assay type: cell-based, mouse
Description: FIG. 2: Peptide titration on BMDM and BMDCs for cytotoxicity and expression of cell markers. Mouse BMDM (A, C, E, G) and BMDCs (B, D, F, H) were cultured for 6 days with […]. Different concentrations were added at day 6 (A, B, E, F) or the cells were primed with different concentrations peptides at day 1-2 (C, D, G, H). At day 7, cell viability was tested using WST-1 reagent, with no-peptide-control set to 100% viability (A-D) and cells were analyzed by flowcytometry for cell marker expression (E-H). Results are depicted as mean +/−S.E.M. (n=3).
Bone marrow cells, isolated from the femur and tibia of both hindlegs, were stored in FCS/10% DMSO in liquid nitrogen. Cells were grown at a concentration of 5×10^5 cells mL^−1 in RPMI-1640 without phenol red (Thermo Fisher Scientific, MA, USA) supplemented with 10% fetal calf serum (FCS) (Corning, NY, USA) and 1% Penicillin/streptomycin (Thermo Fisher Scientific). […] Cells were stained with antibodies (table 1) for 20 minutes, washed and measured using the BD FACSCanto-II (BD bioscience) and analyzed with FlowJo software (Ashland, OR, USA).
WST-1 reagent (roche) was used for cell viability of BMDCs and BMDM as well as for cell activity of activated splenocytes. […] After 30-60 minutes, colorimetric changes were measured at 450 nm using a FLUOstar Omega microplate reader (BMG Labtech GmbH, Ortenberg, Germany). […]

[2] = tested on: 4 different S. suis serotype 2 strains; test: Colony count assay (MBC), summary over the four strains; assay type: cell-based, Streptococcus suis; details: four sub-strains, RPMI+10% FCS medium
Description: FIG. 1: D-CATH2 and its derivatives efficiently kills several S. suis type2 strains in both THB and RPMI+FCS. Antibacterial activity of D-CATH2 and its derivatives against 10^6 CFU ml^−1 S. suis type 2 strains (P1/7, D282, 5735, and OV625) was tested using a colony count assay in both THB medium (A) and RPMI+FCS (B). 2 log CFU mL^−1 was set as detection limit for the experiment. Data is plotted as average +/−SEM (N=3-4).
S. suis Serotype 2 strains P1/7, D282, S735, and OV625 were grown into mid-logarithmic phase for 3-4 hours at 37° C. in THB, after which bacteria were centrifuged at 1200×g for 10 minutes at 4° C. and resuspended in fresh THB. Concentration was determined by measuring the OD value at 620 nm with an OD of 0.1 is 1×10^8 colony forming units (CFU) mL^−1. 10^6 CFU mL^−1 S suis was mixed with different concentrations of D-CATH and derivatives (0.63−40 μM) and left for 3 hours at 37° C. Ten-fold dilutions were prepared and spread in Tryptan Soy agar (TSA) plates containing 5% (vol/vol) defibrinated sheep blood (Oxoid) and colonies were allowed to grow for 48 hours. Minimal Bactericidal Concentration (MBC) was defined as ≤100 CFU mL^−1 (2 logCFU mL^−1), the detection limit of the assay.

[3] = Isothermal titration calorimetry (ITC) of peptide binding to LTA-SA; parameters: species or system S. aureus; details: 200 μM peptide titrated into LTA-SA, 37° C., dPBS; read-out: Kd (dissociation coefficient)
Description: Thermodynamic binding capacity of 200 μM D-CATH2 (A), DC(1-21) (B), and DC(4-21) (C) to 200 μM LTA-SA was measured using isothermal titration calorimetry (ITC). Every 300 seconds, 1.99 μl peptide solution was titrated into 164 μl LTA solution. The corrected heat rate (μJ sec^−1) is plotted (top panel) and normalized integrated heat was plotted against the molar ratio between LTA and the peptide (lower panel). Experiments (N=3) were averaged before plotting and fitting an independent model. The corrected heat rate of D-CATH2, DC(1-21), and DC(4-21) is depicted for comparison (D).
The interaction between the D-CATH2 peptides and LTA-SA was tested using isothermal titration calorimetry (ITC). All ITC experiments were performed on a Low Volume NanoITC (TA instruments-Waters LLC, New Castle, USA). 800 μM of LTA-SA or peptide solution was prepared in MilliQ after which a 4-fold dilution in dPBS (Gibco) was made. The chamber was filled with 164 μl LTA-SA and the peptide was loaded in the syringe. Every 300 seconds, 1.99 μL peptide was titrated into the chamber at 37° C. Data was analyzed using the Nano Analyze software (TA instruments-Waters LLC). The data of three experiments was averaged and an independent model was used to determine the peptide-LTA interaction.

[4] = tested on: murine macrophage cell-line; details: biological form of CATH2; cited from earlier work

CC[C@@H](C)[C@@H](NC(=O)[C@@H](CCCCN)NC(=O)[C@@H](CCCNC(=N)N)NC(=O)[C@@H](CC(C)C)NC(=O)[C@@H](Cc1ccccc1)NC(=O)[C@@H](CCCNC(=N)N)NC(=O)CNC(=O)[C@@H](Cc1ccccc1)NC(=O)[C@H](N)CCCNC(=N)N)C(=O)N[C@H](CCCNC(=N)N)C(=O)N[C@H](CCCNC(=N)N)C(=O)N[C@H](Cc1ccccc1)C(=O)N[C@H](CCCNC(=N)N)C(=O)N1CCC[C@@H]1C(=O)N[C@H](CCCCN)C(=O)N[C@@H](C(=O)N[C@@H](C(=O)N[C@@H](C(=O)N[C@@H](C(=O)N[C@@H](C(=O)N[C@H](CCC(N)=O)C(=O)NCC(=O)N[C@H](CO)C(=O)N[C@H](C)C(=O)N[C@H](CCCNC(=N)N)C(=O)N[C@H](Cc1ccccc1)C(N)=O)[C@H](C)CC)[C@H](C)O)[C@H](C)CC)[C@H](C)O)C(C)C [D-CATH2]
cell viability of BMDMs [1]: relative sensitive

CC[C@@H](C)[C@@H](NC(=O)[C@@H](CCCCN)NC(=O)[C@@H](CCCNC(=N)N)NC(=O)[C@@H](CC(C)C)NC(=O)[C@@H](Cc1ccccc1)NC(=O)[C@@H](CCCNC(=N)N)NC(=O)CNC(=O)[C@@H](Cc1ccccc1)NC(=O)[C@H](N)CCCNC(=N)N)C(=O)N[C@H](CCCNC(=N)N)C(=O)N[C@H](CCCNC(=N)N)C(=O)N[C@H](Cc1ccccc1)C(=O)N[C@H](CCCNC(=N)N)C(=O)N1CCC[C@@H]1C(=O)N[C@H](CCCCN)C(=O)N[C@@H](C(=O)N[C@@H](C(=O)N[C@@H](C(=O)N[C@@H](C(=O)N[C@@H](C(=O)N[C@H](CCC(N)=O)C(N)=O)[C@H](C)CC)[C@H](C)O)[C@H](C)CC)[C@H](C)O)C(C)C [DC(1-21)]
cell viability of BMDMs [1]: especially

CC[C@@H](C)[C@@H](NC(=O)[C@@H](CCCCN)NC(=O)[C@@H](CCCNC(=N)N)NC(=O)[C@@H](CC(C)C)NC(=O)[C@@H](Cc1ccccc1)NC(=O)[C@H](N)CCCNC(=N)N)C(=O)N[C@H](CCCNC(=N)N)C(=O)N[C@H](CCCNC(=N)N)C(=O)N[C@H](Cc1ccccc1)C(=O)N[C@H](CCCNC(=N)N)C(=O)N1CCC[C@@H]1C(=O)N[C@H](CCCCN)C(=O)N[C@@H](C(=O)N[C@@H](C(=O)N[C@@H](C(=O)N[C@@H](C(=O)N[C@@H](C(=O)N[C@H](CCC(N)=O)C(N)=O)[C@H](C)CC)[C@H](C)O)[C@H](C)CC)[C@H](C)O)C(C)C [DC(4-21), RFLRKIRRFRPKVTITIQ-NH2] (H-[dR][dF][dL][dR][dK][dI][dR][dR][dF][dR][dP][dK][dV][dT][dI][dT][dI][dQ]-NH2; N-terminus assumed)
MBC [2]: 2.5 µM (≈ 5.82 µg/mL) | Kd [3]: 2120 nM

RFGRFLRKIRRFRPKVTITIQGSARFG [CATH2, chicken cathelicidin-2, 27 amino acid C-terminal peptide]
LPS and LTA activation [4]: inhibit
